Measured values as given in patent publication US5190870A, “Method for oxidizing hydrocarbons with a hydroxylase from a methane monooxygenase” (Amoco Corporation, priority 1990, dated 1993).

T1: Methylosinus trichosporium OB3b soluble methane monooxygenase, complete system (hydroxylase, component B, reductase) (Methylosinus trichosporium, UniProt P27353)
T1 sequence (P27353 1-526): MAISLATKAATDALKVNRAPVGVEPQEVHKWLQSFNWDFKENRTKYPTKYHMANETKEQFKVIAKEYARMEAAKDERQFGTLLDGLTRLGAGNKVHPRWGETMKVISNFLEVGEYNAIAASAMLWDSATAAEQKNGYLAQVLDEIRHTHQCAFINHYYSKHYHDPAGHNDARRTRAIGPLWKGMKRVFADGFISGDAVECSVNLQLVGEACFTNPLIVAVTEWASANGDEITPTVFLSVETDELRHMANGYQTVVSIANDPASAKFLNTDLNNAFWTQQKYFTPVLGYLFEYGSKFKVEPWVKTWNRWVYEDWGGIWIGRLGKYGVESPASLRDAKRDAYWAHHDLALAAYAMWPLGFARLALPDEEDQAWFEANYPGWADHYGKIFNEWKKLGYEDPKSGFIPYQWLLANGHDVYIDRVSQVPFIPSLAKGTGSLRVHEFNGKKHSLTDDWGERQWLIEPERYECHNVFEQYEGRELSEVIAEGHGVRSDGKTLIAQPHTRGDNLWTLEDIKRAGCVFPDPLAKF
T1 sequence (P27354 1-394 partner): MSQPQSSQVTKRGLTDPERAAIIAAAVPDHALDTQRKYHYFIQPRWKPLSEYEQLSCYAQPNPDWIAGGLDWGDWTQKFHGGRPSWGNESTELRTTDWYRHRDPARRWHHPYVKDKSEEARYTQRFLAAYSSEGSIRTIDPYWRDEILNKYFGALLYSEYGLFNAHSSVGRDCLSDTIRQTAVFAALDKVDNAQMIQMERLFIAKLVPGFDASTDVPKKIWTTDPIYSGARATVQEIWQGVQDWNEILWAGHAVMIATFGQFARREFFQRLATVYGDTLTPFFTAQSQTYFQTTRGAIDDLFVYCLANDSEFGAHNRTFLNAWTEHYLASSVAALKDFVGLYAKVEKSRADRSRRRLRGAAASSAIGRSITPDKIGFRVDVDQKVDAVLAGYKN
T1 sequence (P27355 1-169 partner): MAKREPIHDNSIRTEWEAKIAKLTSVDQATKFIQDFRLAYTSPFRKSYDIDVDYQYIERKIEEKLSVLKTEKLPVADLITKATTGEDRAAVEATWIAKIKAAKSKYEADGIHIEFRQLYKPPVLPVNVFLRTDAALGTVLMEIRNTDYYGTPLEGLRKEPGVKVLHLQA

B1: Methylosinus trichosporium OB3b soluble methane monooxygenase, complete system (hydroxylase, component B, reductase) (Methylosinus trichosporium) (protein)
chain: T1 sequence (P27353 1-526)

What was measured:
[1] = target: T1, Methylosinus trichosporium OB3b soluble methane monooxygenase, complete system (hydroxylase, component B, reductase); assay: Polarographic / gas chromatographic assay of the complete (reconstituted) methane monooxygenase; conditions: catalytic cycles per second per molecule
Protocol: (§1) Unless explicitly stated, the specific activity values reported for the enzyme components are those observed during the hydroxylation reaction in the presence of optimal concentrations of the other components of the methane monooxygenase. The optimal concentrations were determined by varying the concentration of one component relative to fixed concentrations of the other two components. In routine polarographic assays of methane monooxygenase activity, furan is an acceptable substrate with characteristics which facilitate the assay.

[2] = substrate: c1ccoc1; assay: purified protein, by the assay type; conditions: other: complete methane monooxygenase, polarographic assay; pH 7.0; 30.0 °C
Protocol: as §1

Molecule | turnover number relative to the hydroxylase [1] | Km [2]
c1ccoc1 [furan] | 7.6 S^-1 | –
B1 | – | 20 µM
